From patent US8232288B2, “Substituted benzimidazoles, benzothiazoles and benzoxazoles” (Gruenenthal GmbH, priority 2009, dated 2012)

Tests used:
[1] = molecular target: T1, human B1R receptor (hB1R) (Homo sapiens, UniProt P46663); assay: Functional investigation on the bradykinin receptor 1 (B1R), FLIPR Ca2+ assay, hB1R cells; format: cell-based
T1 construct: expressed in transfected cells; host or cells: CHO K1 cells
T1 sequence (P46663 1-353): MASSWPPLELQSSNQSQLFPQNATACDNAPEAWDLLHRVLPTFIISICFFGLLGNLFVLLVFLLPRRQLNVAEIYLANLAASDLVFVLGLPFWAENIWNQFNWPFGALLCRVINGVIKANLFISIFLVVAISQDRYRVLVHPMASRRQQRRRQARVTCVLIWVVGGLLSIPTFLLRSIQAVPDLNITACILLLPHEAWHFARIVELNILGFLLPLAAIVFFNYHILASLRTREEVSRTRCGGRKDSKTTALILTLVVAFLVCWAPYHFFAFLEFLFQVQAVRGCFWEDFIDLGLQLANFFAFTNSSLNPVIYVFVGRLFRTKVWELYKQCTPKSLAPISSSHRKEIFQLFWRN
Summary of the method: (§1)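 Stably transfected CHO K1 cells expressing human or rat B1R were loaded with Fluo-4, and Ca2+ fluorescence was read on a FLIPR. Compound (10 μM) was added first to measure activation. After 10–20 min, agonist at EC80 was added (Lys-Des-Arg9-bradykinin for hB1R, Des-Arg9-bradykinin for rB1R) to give % inhibition. IC50 values came from concentration series.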

[2] = molecular target: T2, B1R receptor of the rat (rB1R) (Rattus norvegicus, UniProt P97583); assay: Functional investigation on the bradykinin receptor 1 (B1R), FLIPR Ca2+ assay, rB1R cells; format: cell-based
T2 construct: expressed in transfected cells; host or cells: CHO K1 cells
T2 sequence (P97583 1-337): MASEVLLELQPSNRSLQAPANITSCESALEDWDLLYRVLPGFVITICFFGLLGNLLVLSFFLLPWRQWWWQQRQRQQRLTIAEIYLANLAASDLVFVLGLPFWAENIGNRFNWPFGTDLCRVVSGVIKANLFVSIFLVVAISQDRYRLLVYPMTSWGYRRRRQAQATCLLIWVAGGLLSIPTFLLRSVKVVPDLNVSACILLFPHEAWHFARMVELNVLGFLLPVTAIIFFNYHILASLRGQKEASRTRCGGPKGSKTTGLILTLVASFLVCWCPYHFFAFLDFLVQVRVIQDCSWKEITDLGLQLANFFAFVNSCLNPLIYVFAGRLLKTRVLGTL
Summary of the method: as §1

SMILES	inhibition at 10 µM [1]	inhibition at 10 µM [2]	% Inhibition (human B1R) at 10 μM ([1]; 10 µM)	% Inhibition (rat B1R) at 10 μM ([2]; 10 µM)
COc1cc(C)c(S(=O)(=O)N(C)C(C)c2nc3cccc(C(=O)N4CCC5(CC4)CCN(S(=O)(=O)c4ccc(F)c(C#N)c4)CC5)c3[nH]2)c(C)c1 (centres unmarked) [I_CC-58, N-[1-[7-[9-[(3-Cyano-4-fluoro-phenyl)sulfonyl]-3,9-diazaspiro[5.5]undecane-3-carbonyl]-1H-benzoimidazol-2-yl]-ethyl]-4-methoxy-N,2,6-trimethyl-benzenesulfonic acid amide]	18%	101%		
COc1cc(C)c(S(=O)(=O)N(C)Cc2nc3c(C(=O)N4CCC5(CC4)CCN(c4ccncc4)C5)cccc3s2)c(C)c1 [I_CC-20, 4-methoxy-N,2,6-trimethyl-N-[[4-(3-pyridin-4-yl-3,8-diazaspiro[4.5]decane-8-carbonyl)-benzothiazol-2-yl]-methyl]-benzenesulfonic acid amide]	93%	100%		
COc1cc(C)c(S(=O)(=O)N(C)c2nc3ccc(C(=O)N4CCC5(CC4)CCN(c4ccncc4)C5)cc3n2C)c(C)c1 [I_CC-18, 4-methoxy-N,2,6-trimethyl-N-[1-methyl-6-(3-pyridin-4-yl-3,8-diazaspiro[4.5]decane-8-carbonyl)-1H-benzoimidazol-2-yl]-benzenesulfonic acid amide]	39%	48%		
COc1cc(C)c(S(=O)(=O)N(C)C(C)c2nc3cccc(C(=O)N4CCC5(CCN(Cc6ccc(OC)c(F)c6)CC5)CC4)c3[nH]2)c(C)c1 (centres unmarked) [I_CC-33, N-[1-[7-[9-[(3-Fluoro-4-methoxy-phenyl)-methyl]-3,9-diazaspiro[5.5]undecane-3-carbonyl]-1H-benzoimidazol-2-yl]-ethyl]-4-methoxy-N,2,6-trimethyl-benzenesulfonic acid amide]	80%	89%		
COc1cc(C)c(S(=O)(=O)N(C)Cc2nc3cccc(C(=O)N4CCC5(CC4)CCN(c4ccncc4)CC5)c3[nH]2)c(C)c1 [I_01, 4-methoxy-N,2,6-trimethyl-N-[[7-(9-pyridin-4-yl-3,9-diazaspiro[5.5]undecane-3-carbonyl)-1H-benzoimidazol-2-yl]-methyl]-benzenesulfonic acid amide]			98%	96%
COc1cc(C)c(S(=O)(=O)N(C)Cc2nc3cccc(CC(=O)N4CCC5(CC4)CCN(c4ccncc4)CC5)c3[nH]2)c(C)c1 [I_21, 4-methoxy-N,2,6-trimethyl-N-[[7-[2-oxo-2-(9-pyridin-4-yl-3,9-diazaspiro[5.5]undecan-3-yl)-ethyl]-1H-benzoimidazol-2-yl]-methyl]-benzenesulfonic acid amide]	99%	55%		
COc1cc(C)c(S(=O)(=O)N(C)C(C)c2nc3cccc(C(=O)N4CCC5(CCN(Cc6c(F)cccc6F)CC5)CC4)c3[nH]2)c(C)c1 (centres unmarked) [I_CC-29, N-[1-[7-[9-[(2,6-Difluoro-phenyl)-methyl]-3,9-diazaspiro[5.5]undecane-3-carbonyl]-1H-benzoimidazol-2-yl]-ethyl]-4-methoxy-N,2,6-trimethyl-benzenesulfonic acid amide]	84%	94%		
COc1cc(C)c(S(=O)(=O)N(C)C(C)c2nc3cccc(C(=O)N4CCC5(CCN(C(=O)c6cccnc6SC)CC5)CC4)c3[nH]2)c(C)c1 (centres unmarked) [I_CC-48, 4-Methoxy-N,2,6-trimethyl-N-[1-[7-[9-(2-methylsulfanyl-pyridine-3-carbonyl)-3,9-diazaspiro[5.5]undecane-3-carbonyl]-1H-benzoimidazol-2-yl]-ethyl]-benzenesulfonic acid amide]	61%	89%		
COc1cc(C)c(S(=O)(=O)N(C)C(C)c2nc3cccc(C(=O)N4CCC5(CCN(Cc6cncn6C)CC5)CC4)c3[nH]2)c(C)c1 (centres unmarked) [I_CC-36, 4-Methoxy-N,2,6-trimethyl-N-[1-[7-[9-[(3-methyl-3H-imidazol-4-yl)-methyl]-3,9-diazaspiro[5.5]undecane-3-carbonyl]-1H-benzoimidazol-2-yl]-ethyl]-benzenesulfonic acid amide]	82%	100%		
COc1cc(C)c(S(=O)(=O)N(C)Cc2nc3cccc(C(=O)N4CCC5(CCC(N6CC(F)(F)C6)CC5)CC4)c3[nH]2)c(C)c1 [I_05, N-[[7-[9-(3,3-difluoro-azetidin-1-yl)-3-azaspiro[5.5]undecane-3-carbonyl]-1H-benzoimidazol-2-yl]-methyl]-4-methoxy-N,2,6-trimethyl-benzenesulfonic acid amide]	55%	72%		
COc1cc(C)c(S(=O)(=O)N(C)C(C)c2nc3cccc(C(=O)N4CCC5(CCN(Cc6ccc(F)c(F)c6)CC5)CC4)c3[nH]2)c(C)c1 (centres unmarked) [I_CC-30, N-[1-[7-[9-[(3,4-Difluoro-phenyl)-methyl]-3,9-diazaspiro[5.5]undecane-3-carbonyl]-1H-benzoimidazol-2-yl]-ethyl]-4-methoxy-N,2,6-trimethyl-benzenesulfonic acid amide]	63%	99%		
COc1cc(C)c(S(=O)(=O)N(C)Cc2nc3cccc(C(=O)N4CCC5(CCC(Oc6ccncc6)CC5)CC4)c3[nH]2)c(C)c1 [I_03, 4-methoxy-N,2,6-trimethyl-N-[[7-(9-pyridin-4-yloxy-3-azaspiro[5.5]undecane-3-carbonyl)-1H-benzoimidazol-2-yl]-methyl]-benzenesulfonic acid amide]	99%	86%		
COc1cc(C)c(S(=O)(=O)N(C)C(C)c2nc3cccc(C(=O)N4CCC5(CCN(Cc6ccc(C#N)cc6)CC5)CC4)c3[nH]2)c(C)c1 (centres unmarked) [I_CC-43, N-[1-[7-[9-[(4-Cyano-phenyl)-methyl]-3,9-diazaspiro[5.5]undecane-3-carbonyl]-1H-benzoimidazol-2-yl]-ethyl]-4-methoxy-N,2,6-trimethyl-benzenesulfonic acid amide]	85%	98%		
COc1cc(C)c(S(=O)(=O)N(C)C(C)c2nc3cccc(C(=O)N4CCC5(CC4)CCN(C(=O)c4cc(C(C)(C)C)nn4C)CC5)c3[nH]2)c(C)c1 (centres unmarked) [I_CC-54, N-[1-[7-[9-(5-tert-Butyl-2-methyl-2H-pyrazole-3-carbonyl)-3,9-diazaspiro[5.5]undecane-3-carbonyl]-1H-benzoimidazol-2-yl]-ethyl]-4-methoxy-N,2,6-trimethyl-benzenesulfonic acid amide]	63%	92%		
COc1cc(C)c(S(=O)(=O)N(C)C(C)c2nc3cccc(C(=O)N4CCC5(CCN(C(=O)CC(C)(C)C)CC5)CC4)c3[nH]2)c(C)c1 (centres unmarked) [I_CC-51, N-[1-[7-[9-(3,3-Dimethyl-butanoyl)-3,9-diazaspiro[5.5]undecane-3-carbonyl]-1H-benzoimidazol-2-yl]-ethyl]-4-methoxy-N,2,6-trimethyl-benzenesulfonic acid amide]	78%	88%		
CN(Cc1nc2cccc(C(=O)N3CCC4(CC3)CCN(c3ccncc3)CC4)c2[nH]1)S(=O)(=O)c1cccc2ccccc12 [I_07, N-methyl-N-[[7-(9-pyridin-4-yl-3,9-diazaspiro[5.5]undecane-3-carbonyl)-1H-benzoimidazol-2-yl]-methyl]-naphthalene-1-sulfonic acid amide]	98%	96%		
COc1cc(C)c(S(=O)(=O)N(C)CCc2nc3ccc(C(=O)N4CCC5(CC4)CCN(c4ccncc4)CC5)cc3[nH]2)c(C)c1 [I_26, 4-methoxy-N,2,6-trimethyl-N-[2-[6-(9-pyridin-4-yl-3,9-diazaspiro[5.5]undecane-3-carbonyl)-1H-benzoimidazol-2-yl]-ethyl]-benzenesulfonic acid amide]	98%	103%		
COc1cc(C)c(S(=O)(=O)N(C)c2nc3cccc(C(=O)N4CCC5(CC4)CCN(c4ccncc4)C5)c3n2C)c(C)c1 [I_CC-15, 4-methoxy-N,2,6-trimethyl-N-[1-methyl-7-(3-pyridin-4-yl-3,8-diazaspiro[4.5]decane-8-carbonyl)-1H-benzoimidazol-2-yl]-benzenesulfonic acid amide]	97%	99%		
COc1cc(C)c(S(=O)(=O)N(C)Cc2nc3c(C(=O)N4CCC5(CC4)CCN(c4ccncc4)CC5)cccc3n2C)c(C)c1 [I_20, 4-methoxy-N,2,6-trimethyl-N-[[1-methyl-4-(9-pyridin-4-yl-3,9-diazaspiro[5.5]undecane-3-carbonyl)-1H-benzoimidazol-2-yl]-methyl]-benzenesulfonic acid amide]	98%	30%		
